Test: recombinant barcode read abundance after kanamycin selection (control-corrected) (log10(CPM+1)); higher = more efficient recombination; sequences stand for … in AGTGCAGAGAAAATCGGCCAGTTTTCTCTGCCTGCAGTCCGCATGCCGT…AGATTTATGCAGCGGACTGCCTTTCTCCCAAAGTGATAAACCGGACAGTATCATGGACCGGTTTTCCCGGTAATCCGTATTTGCAAGGTTGGTTTCACT; site = the 11-nt target
Method in brief: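 Recombination efficiency draws on barcodes counted at recombinant junctions in a pooled E. coli screen of targets paired with IS621 bridge RNA target-binding loops. The counts were converted to counts per million, averaged and corrected against the chloramphenicol/ampicillin LB agar control, then reported as log10(CPM+1). Selection plates held chloramphenicol/ampicillin/kanamycin with 0.1 mM IPTG, with two replicates per condition.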
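Also: IS621 recombinase and bridge RNA in Escherichia coli cells.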

Sequence | recombinant barcode read abundance (log10)
GTCTCCTCTTGGGTTCTAACCTGTTGCCT (site GTCCCCTCTAG) | 2.26
GTCTCCTCTTGGGTTCTAACCTGTTGCCT (site GTCGCCTCTAG) | 0.0306
GTCTCCTCTTGGGTTCTAACCTGTTGCCT (site GTCTCCTCTAG) | 1.62
GTCTCTACTTGGGTTCTAACCTGTTGCCT (site GCCTCTTCTAG) | 0.0271
GTCTCTACTTGGGTTCTAACCTGTTGCCT (site GTCTCTACTAG) | 0.221
GTGAACTCTTGGGTTCTAACCTGTTGCTG (site GTGAACTCTCA) | 2.33
GTGAACTCTTGGGTTCTAACCTGTTGCTG (site GTGATCCCTCA) | 0.0703
GTGACTGCTTGGGTTCTAACCTGTTGCGT (site CACTAGACTCG) | 0.0198
GTGACTGCTTGGGTTCTAACCTGTTGCGT (site GTGACTGCTAC) | 1.46
GTGAGGTCTTGGGTTCTAACCTGTTGCAT (site GTGAGGTCTAA) | 0.46
GTGAGGTCTTGGGTTCTAACCTGTTGCAT (site GTGAGGTCTAC) | 0.709
GTGAGGTCTTGGGTTCTAACCTGTTGCAT (site GTGAGGTCTAG) | 0.375
GTGAGGTCTTGGGTTCTAACCTGTTGCAT (site GTGAGGTCTAT) | 2.71
GTGAGGTCTTGGGTTCTAACCTGTTGCGT (site GTGAGGTCTAA) | 0.231
GTGAGGTCTTGGGTTCTAACCTGTTGCGT (site GTGAGGTCTAC) | 2.08
GTGAGGTCTTGGGTTCTAACCTGTTGCGT (site GTGAGGTCTAG) | 0.586
GTGAGGTCTTGGGTTCTAACCTGTTGCGT (site GTGAGGTCTAT) | 1.69
GTGCAAACTTGGGTTCTAACCTGTTGCCT (site GTGCAAACTAG) | 1.23
GTGCAAACTTGGGTTCTAACCTGTTGCCT (site GTGCACACTTG) | 0.0968
GTGCTTACTTGGGTTCTAACCTGTTGCCT (site GAGCTTACTAG) | 0.0771
GTGCTTACTTGGGTTCTAACCTGTTGCCT (site GCGCTTACTAG) | 0.0397
GTGCTTACTTGGGTTCTAACCTGTTGCCT (site GGGCTTACTAG) | 0.0436

Sequence | recombinant barcode read abundance (log10)
GTGCTTACTTGGGTTCTAACCTGTTGCCT (site GTGCTTACTAG) | 0.538
GTGGCTTCTTGGGTTCTAACCTGTTGCCT (site GAGGCTTCTAG) | 0.128
GTGGCTTCTTGGGTTCTAACCTGTTGCCT (site GCGGCTTCTAG) | 0.248
GTGGCTTCTTGGGTTCTAACCTGTTGCCT (site GGGGCTTCTAG) | 0.132
GTGGCTTCTTGGGTTCTAACCTGTTGCCT (site GTGGCTTCTAG) | 0.389
GTGTACCCTTGGGTTCTAACCTGTTGCGG (site GTGTACCCTAC) | 1.94
GTGTACCCTTGGGTTCTAACCTGTTGCGG (site GTGTACCCTCC) | 1.93
GTGTACCCTTGGGTTCTAACCTGTTGCGG (site GTGTACCCTGC) | 0.161
GTGTACCCTTGGGTTCTAACCTGTTGCGG (site GTGTACCCTTC) | 0.253
GTGTAGTCTTGGGTTCTAACCTGTTGCCG (site GTGTAGGCTCT) | 0.254
GTGTAGTCTTGGGTTCTAACCTGTTGCCG (site GTGTAGTCTCG) | 1.19
GTGTCACCTTGGGTTCTAACCTGTTGCCT (site GTGTCAACTAG) | 0.205
GTGTCACCTTGGGTTCTAACCTGTTGCCT (site GTGTCACCTAG) | 1.52
GTGTCACCTTGGGTTCTAACCTGTTGCCT (site GTGTCAGCTAG) | 0.00534
GTGTCACCTTGGGTTCTAACCTGTTGCCT (site GTGTCATCTAG) | 0.091
GTGTCTCCTTGGGTTCTAACCTGTTGCCT (site ATGTCTCCTAG) | 0.233
GTGTCTCCTTGGGTTCTAACCTGTTGCCT (site CTGTCTCCTAG) | 0.103
GTGTCTCCTTGGGTTCTAACCTGTTGCCT (site GTGTCTCCTAG) | 0.962
GTGTCTCCTTGGGTTCTAACCTGTTGCCT (site TTGTCTCCTAG) | 0.22
GTGTGAGCTTGGGTTCTAACCTGTTGCCG (site GTACGAGCTCG) | 0.269
GTGTGAGCTTGGGTTCTAACCTGTTGCCG (site GTGTGAGCTCG) | 1.74
GTGTGTCCTTGGGTTCTAACCTGTTGCCT (site GTGTGTACTAG) | 0.0295

Sequence | recombinant barcode read abundance (log10)
GTGTGTCCTTGGGTTCTAACCTGTTGCCT (site GTGTGTCCTAG) | 1.31
GTGTGTCCTTGGGTTCTAACCTGTTGCCT (site GTGTGTGCTAG) | 0.155
GTGTGTCCTTGGGTTCTAACCTGTTGCCT (site GTGTGTTCTAG) | 0.108
GTTACCGCTTGGGTTCTAACCTGTTGCCT (site GTAACCGCTAG) | 0.602
GTTACCGCTTGGGTTCTAACCTGTTGCCT (site GTCACCGCTAG) | 0.345
GTTACCGCTTGGGTTCTAACCTGTTGCCT (site GTGACCGCTAG) | 0.0865
GTTACCGCTTGGGTTCTAACCTGTTGCCT (site GTTACCGCTAG) | 1.64
GTTACGTCTTGGGTTCTAACCTGTTGCTT (site AGTACGTCTAA) | 0.115
GTTACGTCTTGGGTTCTAACCTGTTGCTT (site GTTACGTCTAA) | 0.285
GTTAGACCTTGGGTTCTAACCTGTTGCCT (site GTTAGACCTAG) | 0.949
GTTAGACCTTGGGTTCTAACCTGTTGCCT (site TGCCTCTCTTA) | 0.0193
GTTCAGCCTTGGGTTCTAACCTGTTGCCT (site GTCGAGCCTAG) | 0.0107
GTTCAGCCTTGGGTTCTAACCTGTTGCCT (site GTTCAGCCTAG) | 0.611
GTTCCAGCTTGGGTTCTAACCTGTTGCCT (site AGCAGCCCTCT) | 0.0192
GTTCCAGCTTGGGTTCTAACCTGTTGCCT (site GTTCCAGCTAG) | 0.792
GTTCCATCTTGGGTTCTAACCTGTTGCCT (site GATCCATCTAG) | 0.172
GTTCCATCTTGGGTTCTAACCTGTTGCCT (site GCTCCATCTAG) | 0.28
GTTCCATCTTGGGTTCTAACCTGTTGCCT (site GGTCCATCTAG) | 0.216
GTTCCATCTTGGGTTCTAACCTGTTGCCT (site GTTCCATCTAG) | 0.601
GTTCCGGCTTGGGTTCTAACCTGTTGCCT (site GTTACGGCTAG) | 0.139
GTTCCGGCTTGGGTTCTAACCTGTTGCCT (site GTTCCGGCTAG) | 0.834
GTTCCGGCTTGGGTTCTAACCTGTTGCCT (site GTTGCGGCTAG) | 0.145

Sequence | recombinant barcode read abundance (log10)
GTTCCGGCTTGGGTTCTAACCTGTTGCCT (site GTTTCGGCTAG) | 0.373
GTTCCTACTTGGGTTCTAACCTGTTGCCT (site GATCCTACTAG) | 0.215
GTTCCTACTTGGGTTCTAACCTGTTGCCT (site GCTCCTACTAG) | 0.00954
GTTCCTACTTGGGTTCTAACCTGTTGCCT (site GGTCCTACTAG) | 0.133
GTTCCTACTTGGGTTCTAACCTGTTGCCT (site GTTCCTACTAG) | 0.328
GTTGCCACTTGGGTTCTAACCTGTTGCCT (site GTAGCCACTAG) | 0.137
GTTGCCACTTGGGTTCTAACCTGTTGCCT (site GTCGCCACTAG) | 0.0124
GTTGCCACTTGGGTTCTAACCTGTTGCCT (site GTGGCCACTAG) | 0.0918
GTTGCCACTTGGGTTCTAACCTGTTGCCT (site GTTGCCACTAG) | 0.411
GTTGGAACTTGGGTTCTAACCTGTTGCGT (site GTTGGAACTAC) | 2.05
GTTGGAACTTGGGTTCTAACCTGTTGCGT (site GTTGGGACTAG) | 0.312
GTTGGCGCTTGGGTTCTAACCTGTTGCCT (site GTAGGCGCTAG) | 0.276
GTTGGCGCTTGGGTTCTAACCTGTTGCCT (site GTCGGCGCTAG) | 0.125
GTTGGCGCTTGGGTTCTAACCTGTTGCCT (site GTGGGCGCTAG) | 0.0363
GTTGGCGCTTGGGTTCTAACCTGTTGCCT (site GTTGGCGCTAG) | 0.841
GTTGGGGCTTGGGTTCTAACCTGTTGCCT (site GTGGTGGCTAG) | 0.254
GTTGGGGCTTGGGTTCTAACCTGTTGCCT (site GTTGGGGCTAG) | 0.634
GTTTAATCTTGGGTTCTAACCTGTTGCAT (site GTTTAATCTAT) | 0.343
GTTTAATCTTGGGTTCTAACCTGTTGCAT (site TGGGTCACTTA) | 0.0197
GTTTGGACTTGGGTTCTAACCTGTTGCAG (site GCTTGGACTAT) | 0.153

Reference: the supplement of paper PMC11208160
